We go through four compounds from US12216122B2, “Compositions and methods relating to detection, inhibition, and imaging of indoleamine 2,3-dioxygenase 1 (IDO1)” (Regeneron Pharmaceuticals, Inc., priority 2019, dated 2025).

Data set [1] addresses T1, His-tagged IDO1 human recombinant protein (Homo sapiens, UniProt P14902).
T1 construct: purchased BPS Biosciences 71182
The data set can be described thus: IDO1 ELISA (Affinity Assay): sandwich ELISA, biotinylated ligand immobilized on NEUTRAVIDIN plate. It counts as binding.

For another data set, the system named is HeLa cells. The data set can be described thus: Cellular internalization of fluorescent IDO1 ligands (flow cytometry). It counts as cell-based. As to conditions: Cy5 or FITC label, flow cytometry. As to the method:
Internalization of fluorescently labeled peptides (using Cy5 or FITC) was measured by concentration dependent flow cytometry of unstimulated HeLa cells incubated for one hour with the peptide. […] Internalization was also testing using a cellular inhibition assay, which occurs over 48 hours (rather than the one hour for the flow cytometry assay). Internalized FITC-wyvay (SEQ ID NO:2) at 48 hours was compared to one hour in both unstimulated and stimulated HeLa cells (Table 13). Cell penetration of FITC-wyvay (SEQ ID NO:2) increases with time; more internalized FITC-wyvay (SEQ ID NO:2) can be detected at 48 hours compared to one hour. After one hour, no difference in intracellular staining of FITC-wyvay (SEQ ID NO:2) is observed in unstimulated versus stimulated cells. At 48 hours, there is a slight increase in intracellular FITC-wyvay (SEQ ID NO:2) in stimulated compared to unstimulated cells.
Protocol: HeLa cells were cultured to confluence (˜500,000 cells) in 6-well plates in cell culture medium (DMEM+10% Fetal Bovine Serum (FBS)+1% Penicillin/Streptomycin) or in cell culture medium containing 100 ng/mL IFNγ to stimulate IDO1 expression. The cells were treated with 2 μM or 8 μM macrocyclic IDO1 ligand labeled with either Cy5 or FITC for either 1 hour, 24 hours, or 48 hours as indicated. After treatment, the ligands were aspirated and the cells were washed twice with 1× Phosphate Buffered Saline (PBS). The cells were then harvested by treatment with 0.05% Trypsin-1×EDTA for 5 min at 37° C. Trypsin was quenched by the addition of PBS+2% FBS. The cells in suspension were washed twice in PBS+2% FBS, then resuspended in 500 μL PBS+2% FBS and analyzed for Cy5 or FITC fluorescence using a BD LSR Fortessa X-20 flow cytometer or/and ImageStream X Mark II imaging flow cytometer. Flow Cytometry Standard (fcs) data files were analyzed using FlowJo Software version 10.
Background: In flow cytometry, cells or beads pass a laser one at a time.

Data set [2] is described as follows: Percent organic elution in reverse-phase HPLC (C18) as lipophilicity readout. Format: physicochemical. As to conditions: for HPLC % B: Table 12, C18, A=water+0.1% TFA, B=acetonitrile+0.1% TFA. The text has this: The predicted increase in lipophilicity for wyvay (SEQ ID NO:2) was experimentally confirmed by the percent organic (% B) elution during reverse-phase HPLC (RP-HPLC) using a C18 column where solvents A=water+0.1% TFA and B=acetonitrile+0.1% TFA.

Another data set has as its target murine IDO1 protein (Mus musculus, UniProt P28776). The data set can be described thus: ELISA against murine IDO1 protein (species cross-reactivity). It counts as binding. As to the method:
Protocol: A black 96-well NEUTRAVIDIN® Coated High Binding Capacity plate (15510, Pierce) was coated with 2 μM biotinylated macrocyclic peptide ligand in TBS (25 mM Tris-HCl, 150 mM NaCl, pH 7.6) for 2 h at room temperature. The plate was aspirated and then washed with Wash Buffer (0.05% (v/v) TWEEN® 20 in PBS, 6×). His-tagged IDO1 human recombinant protein (71182, BPS Biosciences) was serially diluted in Wash Buffer (from 200 to 0 nM) and incubated in the designated microwells for 1 h at room temperature. Microwells were aspirated and subsequently washed with Wash Buffer (11×). To detect the bound IDO1 protein, Alkaline Phosphatase (AP)-conjugated Anti-6×HIS TAG® antibody [HIS-1] (ab49746, Abcam) was prepared at 1:10,000 dilution and added to the microwells for 1 h at room temperature. The plate was aspirated and washed with Wash Buffer (5×). ATTOPHOS® AP Fluorescent Substrate System (S1000, Promega) was employed to develop the microwells. Using an excitation wavelength of 430 nm, fluorescent emission at 535 nm was recorded by Beckman Coulter DTX880 photometer. Titration curves were fit using a four-parameter regression curve fitting program to determine EC50 values.
To test for cross-reactivity with murine IDO1, the human IDO1 targeted macrocyclic peptide ligands were assayed against the murine IDO1 protein by ELISA.
On the technique in general: An ELISA detects its analyte on a solid surface through an enzyme-linked reagent.

Data set [3] addresses T1, His-tagged IDO1 human recombinant protein. The data set can be described thus: IDO1 ELISA (Affinity Assay): sandwich ELISA, biotinylated ligand immobilized on NEUTRAVIDIN plate. Format: binding. To be noted: a solution of 200 nM macrocycle was immobilized; read-out: EC50, sandwich ELISA for human IDO1 protein against biotin-PEG3-modified macrocycle.

“Also recorded” adds a separate entry of the source. Read-outs that look alike come from different tables or passages of the source. Numbered stars: 1 amine (or outer) side, 2 acyl side, 3 side chain; on linkers, the order of the positions; unused ones are H or OH. Bridge positions count the residues as written; N and C are the ends. Square brackets hold non-standard residues; d marks the D form. Triazole bridges read from a SMILES are 1,4-linked. Peptide text beside a SMILES is read from it. * marks the point of attachment. Biotinyl(3aR,4R,6aS) = O=C1N[C@@H]2[C@@H](CS[C@@H]2CCCCC(=O)*)N1; NH(CH2CH2O)5CH2CO = O=C(COCCOCCOCCOCCOCCN[*:1])[*:2]; dTrp(1-Me) = Cn1cc(C[C@@H](N)C(=O)O)c2ccccc21; X1 = O=C(CSc1nonc1/C(=N/O)Nc1ccc(F)c(Br)c1)*; Lys(N3) = [N-]=[N+]=NCCCC[C@H](N)C(=O)O; AEEEA = NCCOCCOCCOCC(=O)O; Pra = C#CC[C@H](N)C(=O)O; βAla = NCCC(=O)O

T1 sequence (P14902 whole entry): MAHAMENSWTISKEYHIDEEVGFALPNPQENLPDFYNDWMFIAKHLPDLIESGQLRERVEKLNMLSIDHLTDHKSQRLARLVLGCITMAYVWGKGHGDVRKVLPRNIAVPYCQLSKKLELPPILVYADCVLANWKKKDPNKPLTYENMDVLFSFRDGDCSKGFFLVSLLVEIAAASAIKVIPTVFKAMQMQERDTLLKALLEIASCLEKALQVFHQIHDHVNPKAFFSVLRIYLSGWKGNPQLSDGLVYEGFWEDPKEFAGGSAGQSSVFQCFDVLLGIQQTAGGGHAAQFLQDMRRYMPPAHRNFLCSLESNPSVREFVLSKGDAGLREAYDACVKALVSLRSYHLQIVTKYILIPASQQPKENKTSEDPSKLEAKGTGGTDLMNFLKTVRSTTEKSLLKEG
Sequence of murine IDO1 protein (P28776 whole entry): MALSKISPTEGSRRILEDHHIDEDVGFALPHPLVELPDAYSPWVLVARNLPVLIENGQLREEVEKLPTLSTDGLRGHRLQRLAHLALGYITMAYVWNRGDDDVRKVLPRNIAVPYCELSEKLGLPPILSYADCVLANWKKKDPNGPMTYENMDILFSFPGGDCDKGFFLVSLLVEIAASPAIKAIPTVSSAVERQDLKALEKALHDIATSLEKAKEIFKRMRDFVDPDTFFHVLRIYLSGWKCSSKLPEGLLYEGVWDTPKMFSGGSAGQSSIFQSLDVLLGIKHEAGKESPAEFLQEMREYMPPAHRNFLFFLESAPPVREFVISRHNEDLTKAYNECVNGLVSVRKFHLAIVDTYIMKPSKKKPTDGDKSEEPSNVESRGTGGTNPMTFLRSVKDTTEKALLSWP

`CC(C)[C@H]1NC(=O)[C@@H](Cc2ccc(O)cc2)NC(=O)[C@@H](Cc2c[nH]c3ccccc23)NC(=O)[C@@H](N)Cc2cn(nn2)CCCC[C@@H](C(N)=O)NC(=O)[C@@H](Cc2ccc(O)cc2)NC(=O)[C@@H](C)NC1=O` [wyvay] (H-[Pra][dW][dY][dV][dA][dY][Lys(N3)]-NH2; triazole 1-7): the EC50 (as a rule, the concentration giving half of the maximal effect) in data set [1] (Table 12, read-out: EC50) came out at 45 nM; in data set [1] (binding analysis of VHL-linked Epitope 2 ligand, read-out: EC50), 45 nM. Also, the “Binding to human IDO1 by ELISA, in words” value in data set [1] (alanine scan, 3-mer/4-mer and substituted variants compared with parent macrocycle) is on record as “modest loss in binding affinity”. Moreover, the “Internalization of fluorescently labeled peptide, in words” value with HeLa cells is reported as “dose response cellular uptake; also recorded: Concentration dependent internalization”. The “HPLC % B” value in data set [2] turned out to be 33.4%.

Consider `C[C@H]1NC(=O)[C@@H](CCCNC(=N)N)NC(=O)[C@@H](Cc2ccc(O)cc2)NC(=O)[C@@H](Cc2c[nH]c3ccccc23)NC(=O)[C@@H](NC(=O)COCCOCCOCCNC(=O)CCCC[C@H]2SC[C@H]3NC(=O)N[C@H]32)CC2=CC(CCCC[C@@H](C(N)=O)NC(=O)[C@@H](Cc3ccc(O)cc3)NC1=O)N=N2` (some centres unmarked) [wyray, biotin-PEG3-Cy(wyray)], for which the EC50 worked out at 25 nM in data set [1] (2 μM biotinylated macrocycle immobilized, human IDO1 titrated 200 to 0 nM, read-out: EC50, sandwich ELISA for human IDO1 protein against biotin-PEG3-modified macrocycle); 25 nM in data set [1] (Example 9, read-out: Binding affinity (EC50) of prioritized Epitope 1 hits); 25 nM in data set [1] (Table 12, read-out: EC50). In addition, on murine IDO1 protein (FIG. 2F), the “Selectivity human versus mouse IDO1 by ELISA” value is “selectivity for the human recombinant protein over mouse is observed”. In addition, the “HPLC % B” value in data set [2] is listed as 25.7%.

With `CC(C)[C@H]1NC(=O)[C@@H](Cc2ccc(O)cc2)NC(=O)[C@@H](Cc2c[nH]c3ccccc23)NC(=O)[C@@H](NC(=O)COCCOCCOCCOCCOCCNC(=O)CCNC(=O)CSc2nonc2/C(=N/O)Nc2ccc(F)c(Br)c2)Cc2cn(nn2)CCCC[C@@H](C(N)=O)NC(=O)[C@@H](Cc2ccc(O)cc2)NC(=O)[C@@H](C)NC1=O` [Inh-BA-PEG5-wyvay] ({X1-βAla}-[NH(CH2CH2O)5CH2CO][Pra][dW][dY][dV][dA][dY][Lys(N3)]-NH2; triazole 2-8; N-terminus and C-terminus assumed), the “% MeCN” value in data set [2] (Table 16) is recorded as 46.90%.

Turning to `Cn1cc(C[C@H]2NC(=O)[C@@H](CO)NC(=O)[C@@H](Cc3ccc(O)cc3)NC(=O)[C@@H](CCCNC(=N)N)NC(=O)[C@@H](NC(=O)COCCOCCOCCNC(=O)CCCC[C@H]3SC[C@H]4NC(=O)N[C@H]43)Cc3cn(nn3)CCCC[C@@H](C(N)=O)NC(=O)[C@@H](CCCNC(=N)N)NC2=O)c2ccccc21` [rys(Me-Trp)r, biotin-PEG3-Cy(rys(Me-Trp)r)] ({Biotinyl(3aR,4R,6aS)-AEEEA}-[Pra][dR][dY][dS][dTrp(1-Me)][dR][Lys(N3)]-NH2; triazole 1-7), the concentration for a half-maximal effect (EC50) in data set [1] (Table 10, read-out: Human IDO EC50) is 91 ± 22 nM; on murine IDO1 protein (Table 10, read-out: Mouse IDO EC50), 17 nM; in data set [3] it was 81 nM.
